Measurements: patent publication US8697739B2, “Bicyclic acetyl-CoA carboxylase inhibitors and uses thereof” (Novartis AG, priority 2010, dated 2014)

Molecular target: T1, human acetyl-CoA carboxylase 2 (ACC2) (Homo sapiens, UniProt O00763)
T1 construct: The cDNA encoding amino acids 144 to 2458 of human acetyl-CoA carboxylase 2; made in house; host or cells: Sf9 insect cells (baculovirus, pFastBac1)
Test: Acetyl-CoA carboxylase enzyme assay (malonyl-CoA formation by LC/MS/MS)
Type: biochemical
Details: recombinant human ACC2 (aa 144-2458); read-out: IC50 ACC2
Summary of the method: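 Malonyl-CoA formation was read by LC/MS/MS MRM against a [13C3]-malonyl-CoA internal standard, after acetic acid quench. The enzyme was baculovirus/Sf9-expressed human ACC2 residues 144–2458, given 15 minutes room-temperature compound preincubation in HEPES pH 7.5 buffer with MgCl2, citrate and DTT. Substrate solution held 50 μM acetyl-CoA, 120 μM ATP and 2 mM KHCO3.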

T1 sequence (O00763 144-2458): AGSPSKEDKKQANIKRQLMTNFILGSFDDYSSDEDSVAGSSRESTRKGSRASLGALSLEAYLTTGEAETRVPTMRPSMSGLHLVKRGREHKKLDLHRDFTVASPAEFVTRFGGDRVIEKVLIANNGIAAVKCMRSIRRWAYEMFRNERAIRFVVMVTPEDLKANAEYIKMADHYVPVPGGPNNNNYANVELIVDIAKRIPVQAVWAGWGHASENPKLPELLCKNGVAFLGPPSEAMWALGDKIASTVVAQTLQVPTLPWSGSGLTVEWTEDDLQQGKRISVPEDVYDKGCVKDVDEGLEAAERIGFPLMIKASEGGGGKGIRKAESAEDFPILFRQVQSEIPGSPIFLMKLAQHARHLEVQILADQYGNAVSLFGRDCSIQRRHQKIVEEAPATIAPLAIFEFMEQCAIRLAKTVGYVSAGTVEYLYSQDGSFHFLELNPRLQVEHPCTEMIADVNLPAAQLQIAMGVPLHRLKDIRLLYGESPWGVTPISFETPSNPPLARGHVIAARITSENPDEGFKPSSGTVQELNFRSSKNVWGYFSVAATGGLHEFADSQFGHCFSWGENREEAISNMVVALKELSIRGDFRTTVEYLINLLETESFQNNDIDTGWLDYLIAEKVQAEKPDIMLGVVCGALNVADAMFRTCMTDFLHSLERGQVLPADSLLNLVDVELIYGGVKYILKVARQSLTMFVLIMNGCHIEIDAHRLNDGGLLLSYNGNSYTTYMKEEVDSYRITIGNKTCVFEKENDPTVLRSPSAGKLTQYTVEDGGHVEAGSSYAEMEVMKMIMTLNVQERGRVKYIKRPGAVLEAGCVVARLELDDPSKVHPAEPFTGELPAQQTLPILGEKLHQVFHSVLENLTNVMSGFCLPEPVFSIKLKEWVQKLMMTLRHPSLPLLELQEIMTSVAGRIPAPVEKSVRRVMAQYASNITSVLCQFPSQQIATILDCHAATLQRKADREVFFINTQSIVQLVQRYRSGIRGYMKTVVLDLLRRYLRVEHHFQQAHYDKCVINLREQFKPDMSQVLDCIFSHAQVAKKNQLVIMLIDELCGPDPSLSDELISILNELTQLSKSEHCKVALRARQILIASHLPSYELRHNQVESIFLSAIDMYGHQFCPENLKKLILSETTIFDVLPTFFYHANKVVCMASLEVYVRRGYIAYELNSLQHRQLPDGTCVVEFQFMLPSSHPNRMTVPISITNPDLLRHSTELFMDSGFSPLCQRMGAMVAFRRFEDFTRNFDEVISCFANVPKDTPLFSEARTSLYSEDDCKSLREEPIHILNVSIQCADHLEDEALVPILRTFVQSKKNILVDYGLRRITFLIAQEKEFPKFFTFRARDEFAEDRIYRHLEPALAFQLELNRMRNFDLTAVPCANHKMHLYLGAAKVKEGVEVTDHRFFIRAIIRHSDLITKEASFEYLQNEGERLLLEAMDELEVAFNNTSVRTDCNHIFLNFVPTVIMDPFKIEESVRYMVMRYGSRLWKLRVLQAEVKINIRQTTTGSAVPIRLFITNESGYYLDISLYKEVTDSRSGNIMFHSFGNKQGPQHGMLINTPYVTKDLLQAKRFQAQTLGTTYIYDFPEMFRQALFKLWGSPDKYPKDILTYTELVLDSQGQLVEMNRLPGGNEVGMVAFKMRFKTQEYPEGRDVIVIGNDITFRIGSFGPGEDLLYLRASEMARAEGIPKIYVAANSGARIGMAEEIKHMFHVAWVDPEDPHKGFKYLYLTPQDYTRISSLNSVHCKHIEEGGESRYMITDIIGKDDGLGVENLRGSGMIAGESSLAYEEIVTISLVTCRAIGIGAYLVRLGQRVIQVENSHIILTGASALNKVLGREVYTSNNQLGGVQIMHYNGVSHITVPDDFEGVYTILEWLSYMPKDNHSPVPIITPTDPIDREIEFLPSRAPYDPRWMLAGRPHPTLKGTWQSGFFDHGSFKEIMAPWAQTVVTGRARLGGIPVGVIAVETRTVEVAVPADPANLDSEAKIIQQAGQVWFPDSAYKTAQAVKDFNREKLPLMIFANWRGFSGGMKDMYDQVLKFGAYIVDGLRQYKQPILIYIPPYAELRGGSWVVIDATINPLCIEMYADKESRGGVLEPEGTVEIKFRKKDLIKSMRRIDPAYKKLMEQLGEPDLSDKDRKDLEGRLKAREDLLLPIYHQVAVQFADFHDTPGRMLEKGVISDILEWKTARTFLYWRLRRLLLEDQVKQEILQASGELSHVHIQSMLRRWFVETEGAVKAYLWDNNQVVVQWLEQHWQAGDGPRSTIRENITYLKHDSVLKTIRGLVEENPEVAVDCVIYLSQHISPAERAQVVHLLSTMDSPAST

Compared with `CC1CN(C(=O)[C@H]2CC[C@H](NS(=O)(=O)c3ccc4[nH]c(-c5ccccc5)nc4c3)CC2)CC(C)O1` (some centres unmarked) [Example 620, N-((1r,4r)-4-(2,6-dimethylmorpholine-4-carbonyl)cyclohexyl)-2-phenyl-1H-benzo[d]imidazole-5-sulfonamide], `C[C@@H]1C[C@H](C)CN(C(=O)[C@H]2CC[C@H](NS(=O)(=O)c3ccc4[nH]c(-c5ccccc5)nc4c3)CC2)C1` [Example 666, N-((1R,4r)-4-((3S,5R)-3,5-dimethylpiperidine-1-carbonyl)cyclohexyl)-2-phenyl-1H-benzo[d]imidazole-5-sulfonamide] is 1.9-fold lower in IC50: 58 nM for the first, 30 nM for the second. The second is the more potent here.

First: Cn1c(C2CC2)cc2ccc(S(=O)(=O)N[C@H]3CC[C@H](C(=O)N[C@@H](c4ccccc4)C(C)(C)C(=O)O)CC3)cc21 [Example 409, (S)-3-((1r,4S)-4-(2-cyclopropyl-1-methyl-1H-indole-6-sulfonamido)cyclohexanecarboxamido)-2,2-dimethyl-3-phenylpropanoic acid]
Second: CCOc1ccc2cc(S(=O)(=O)N[C@H]3CC[C@H](C(=O)N[C@@H](c4ccccc4)[C@@H](C)O)CC3)ccc2n1 [Example 37, (1r,4S)-4-(2-ethoxyquinoline-6-sulfonamido)-N-((1S,2R)-2-hydroxy-1-phenylpropyl)cyclohexanecarboxamide]
The IC50 of the first is lower: less than 10 nM for the first, 75 nM for the second.

`Cc1cc(CO)ccc1-c1cc2ccc(S(=O)(=O)N[C@H]3CC[C@H](C(=O)N4CCNC(C(F)(F)F)C4)CC3)cc2n1C` (some centres unmarked) [Example 318, 2-(4-(hydroxymethyl)-2-methylphenyl)-1-methyl-N-((1r,4r)-4-(3-(trifluoromethyl)piperazine-1-carbonyl)cyclohexyl)-1H-indole-6-sulfonamide] and `CC(C)n1c(-c2ccc(F)cc2)c(Cl)c2ccc(S(=O)(=O)N[C@H]3CC[C@H](C(=O)N4CCNC(C(F)(F)F)C4)CC3)cc21` (some centres unmarked) [Example 350, 3-chloro-2-(4-fluorophenyl)-1-isopropyl-N-((1r,4r)-4-(3-(trifluoromethyl)piperazine-1-carbonyl)cyclohexyl)-1H-indole-6-sulfonamide] are within 1.5-fold of each other in IC50: 515 nM for the first, 470 nM for the second.

`C[C@@H](NC(=O)[C@H]1CC[C@H](NS(=O)(=O)c2ccc3nc(OC4CCC4)ccc3c2)CC1)c1ccc(F)cc1` [Example 51, (1r,4R)-4-(2-cyclobutoxyquinoline-6-sulfonamido)-N-((R)-1-(4-fluorophenyl)ethyl)cyclohexanecarboxamide] and `C[C@@H](NC(=O)[C@H]1CC[C@H](NS(=O)(=O)c2ccc3nc(OCC(C)(C)O)ccc3c2)CC1)c1ccc(F)cc1` [Example 81, (1r,4R)-N-((R)-1-(4-fluorophenyl)ethyl)-4-(2-(2-hydroxy-2-methylpropoxy)quinoline-6-sulfonamido)cyclohexanecarboxamide] are within 1.5-fold of each other in IC50: 101 nM for the first, 95 nM for the second.

First: COc1ccc(CNCc2ccc(-c3nc4cc(S(=O)(=O)Nc5ccc(C(=O)OC(C)C)cc5)ccc4[nH]3)cc2)cc1OC [Example 563, isopropyl 4-(2-(4-((3,4-dimethoxybenzylamino)methyl)phenyl)-1H-benzo[d]imidazole-5-sulfonamido)benzoate]
Second: CC(C)OC(=O)c1ccc(NS(=O)(=O)c2ccc3nc(-c4ccc(C(=O)O)cc4)[nH]c3c2)cc1 [Example 509, 4-(6-(N-(4-(isopropoxycarbonyl)phenyl)sulfamoyl)-1H-benzo[d]imidazol-2-yl)benzoic acid]
The IC50 of the first is 1.9-fold lower: 351 nM for the first, 678 nM for the second. The first is the more potent here.

`CC(C)(C)OC(=O)N1CCN(C(=O)[C@H]2CC[C@H](NS(=O)(=O)c3ccc4c(c3)Cc3ccccc3-4)CC2)[C@@H](c2ccccc2)C1` [Example 240, (S)-tert-butyl 4-((1r,4S)-4-(9H-fluorene-2-sulfonamido)cyclohexanecarbonyl)-3-phenylpiperazine-1-carboxylate] and `Cn1c(-c2ccc(CCC(=O)O)cc2)cc2ccc(S(=O)(=O)N[C@H]3CC[C@H](C(=O)N4CCC[C@@H]4C(C)(C)C)CC3)cc21` [Example 400, 3-(4-(6-(N-((1R,4r)-4-((R)-2-tert-butylpyrrolidine-1-carbonyl)cyclohexyl)sulfamoyl)-1-methyl-1H-indol-2-yl)phenyl)propanoic acid] cannot be ordered by IC50: less than 10 nM for the first, less than 10 nM for the second.

Compared with `CCOC(=O)CCc1c(Cl)c2ccc(S(=O)(=O)N[C@H]3CC[C@H](C(=O)N4CCCC4c4ccc(F)cc4)CC3)cc2n1C` (some centres unmarked) [Example 371, ethyl 3-(3-chloro-6-(N-((1r,4r)-4-(2-(4-fluorophenyl)pyrrolidine-1-carbonyl)cyclohexyl)sulfamoyl)-1-methyl-1H-indol-2-yl)propanoate], `C[C@@H](NC(=O)[C@H]1CC[C@H](NS(=O)(=O)c2cnc3c(c2)N(C)[C@@H]2CCCC[C@H]2N3C)CC1)c1ccc(F)cc1` [Example 139, (1R,4R)-4-((5aR,9aR)-5,10-dimethyl-5,5a,6,7,8,9,9a,10-octahydropyrido[3,2-b]quinoxaline-3-sulfonamido)-N-((R)-1-(4-fluorophenyl)ethyl)cyclohexanecarboxamide] is 7.2-fold lower in IC50: 115 nM for the first, 16 nM for the second. The second is the more potent here.

Compared with `O=S(=O)(N[C@H]1CC[C@H](c2nnc(C3CCCCC3)o2)CC1)c1ccc2c(c1)CNCC2` [Example 685, N-((1r,4r)-4-(5-cyclohexyl-1,3,4-oxadiazol-2-yl)cyclohexyl)-1,2,3,4-tetrahydroisoquinoline-7-sulfonamide], `CN1CCN(c2ccc(Nc3nc4cc(S(=O)(=O)N[C@H]5CC[C@H](c6nnc(C(C)(C)C)o6)CC5)ccc4[nH]3)cc2)CC1` [Example 9, N-((1r,4r)-4-(5-tert-butyl-1,3,4-oxadiazol-2-yl)cyclohexyl)-2-(4-(4-methylpiperazin-1-yl)phenylamino)-1H-benzo[d]imidazole-5-sulfonamide] is lower in IC50: greater than 35000 nM for the first, 47 nM for the second. The second is the more potent here.

Going from `C[C@@H](NC(=O)[C@H]1CC[C@H](NS(=O)(=O)c2ccc3ncsc3c2)CC1)c1ccc(F)cc1` [Example 113, (1r,4R)-4-(benzo[d]thiazole-6-surfonamido)-N-((R)-1-(4-fluorophenyl)ethyl)cyclohexanecarboxamide] to `C[C@@H](NC(=O)[C@H]1CC[C@H](NS(=O)(=O)c2ccc3ncccc3c2)CC1)c1ccc(F)cc1` [Example 111, (1r,4R)-N-((R)-1-(4-fluorophenyl)ethyl)-4-(quinoline-6-sulfonamido)cyclohexanecarboxamide], the IC50 falls from 212 nM to 139 nM (1.5-fold). The second is the more potent here.

First: C[C@@H](NC(=O)[C@H]1CC[C@H](NS(=O)(=O)c2ccc3nc(N4CCNC5(CC5)C4)ccc3c2)CC1)c1ccc(F)cc1 [Example 237, (1r,4R)-4-(2-(4,7-diazaspiro[2.5]octan-7-yl)quinoline-6-sulfonamido)-N-((R)-1-(4-fluorophenyl)ethyl)cyclohexanecarboxamide]
Second: C[C@@H](NC(=O)[C@H]1CC[C@H](NS(=O)(=O)c2ccc3nc(-c4cccnc4)ccc3c2)CC1)c1ccc(F)cc1 [Example 218, (1r,4R)-N-((R)-1-(4-fluorophenyl)ethyl)-4-(2-(pyridin-3-yl)quinoline-6-sulfonamido)cyclohexanecarboxamide]
The IC50 of the first is 4.2-fold higher: 85 nM for the first, 20 nM for the second.

First: CC[C@@H](NC(=O)[C@H]1CC[C@H](NS(=O)(=O)c2cnc3ccccc3c2)CC1)c1ccccc1 [Example 56, (1r,4R)-N-((R)-1-phenylpropyl)-4-(quinoline-3-sulfonamido)cyclohexanecarboxamide]
Second: C[C@@H](NC(=O)C1CCC(NS(=O)(=O)c2cnc3c(c2)N[C@H](Cc2ccccc2)CS3)CC1)c1ccc(F)cc1 (stereo partly drawn) [Example 190, 4-((R)-2-benzyl-2,3-dihydro-1H-pyrido[2,3-b][1,4]thiazine-7-sulfonamido)-N-((R)-1-(4-fluorophenyl)ethyl)cyclohexanecarboxamide]
The IC50 of the first is 5.4-fold higher: 189 nM for the first, 35 nM for the second.

Compared with `C[C@@H](NC(=O)[C@H]1CC[C@H](NS(=O)(=O)c2ccc3[nH]c(-c4ccccc4)cc3c2)CC1)c1ccc(F)cc1` [Example 102, (1r,4R)-N-((R)-1-(4-fluorophenyl)ethyl)-4-(2-phenyl-1H-indole-5-sulfonamido)cyclohexanecarboxamide], `C[C@@H](NC(=O)[C@H]1CC[C@H](NS(=O)(=O)c2ccc3[nH]c(-c4cccnc4)cc3c2)CC1)c1ccc(F)cc1` [Example 285, (1r,4R)-N-((R)-1-(4-fluorophenyl)ethyl)-4-(2-(pyridin-3-yl)-1H-indole-5-sulfonamido)cyclohexanecarboxamide] is 3.8-fold lower in IC50: 45 nM for the first, 12 nM for the second.

First: COc1ccc(Nc2nc3cc(S(=O)(=O)Nc4ccc(-c5nnc(C(C)C)o5)cc4)ccc3[nH]2)cc1 [Example 602, N-(4-(5-isopropyl-1,3,4-oxadiazol-2-yl)phenyl)-2-(4-methoxyphenylamino)-1H-benzo[d]imidazole-5-sulfonamide]
Second: CC(C)OC(=O)c1ccc(NS(=O)(=O)c2ccc3nc(-c4cccc(O)c4)[nH]c3c2)cc1 [Example 511, isopropyl 4-(2-(3-hydroxyphenyl)-1H-benzo[d]imidazole-6-sulfonamido)benzoate]
The IC50 of the first is 2-fold lower: 536 nM for the first, 1050 nM for the second. The first is the more potent here.

First: C[C@@H](NC(=O)[C@H]1CC[C@H](NS(=O)(=O)c2cnc3c(c2)N(CC(F)(F)F)CCN3C)CC1)c1ccc(F)cc1 [Example 135, (1r,4R)-N-((R)-1-(4-fluorophenyl)ethyl)-4-(4-methyl-1-(2,2,2-triffuoroethyl)-1,2,3,4-tetrahydropyrido[3,2-b]pyrazine-7-sulfonamido)cyclohexanecarboxamide]
Second: C[C@@H](NC(=O)[C@H]1CC[C@H](NS(=O)(=O)c2cnc3c(c2)NCC(C)(C)CN3)CC1)c1ccc(F)cc1 [Example 153, (1r,4R)-4-(3,3-dimethyl-2,3,4,5-tetrahydro-1H-pyrido[2,3-b][1,4]diazepine-8-sulfonamido)-N-((R)-1-(4-fluorophenyl)ethyl)cyclohexanecarboxamide]
The IC50 of the first is 2.8-fold lower: 157 nM for the first, 440 nM for the second. The first is the more potent here.

`O=C(NCc1cc(F)cc(F)c1)[C@H]1CC[C@H](NS(=O)(=O)c2ccc3[nH]c(-c4ccccc4)nc3c2)CC1` [Example 644, (1r,4r)-N-(3,5-difluorobenzyl)-4-(2-phenyl-1H-benzo[d]imidazole-5-sulfonamido)cyclohexanecarboxamide] gave an IC50 of 588 nM.
